“Also recorded” adds a separate entry of the source. No end group written: not given here.
Biological target: T1, MLH1-ΔConMot-PMS2 (Homo sapiens, UniProt P40692+P54278, DEL377-396)
T1 construct: The pcDNA3 expression vector containing the entire open reading frame of human MLH1; expressed in transfected cells; host or cells: HEK293T (MLH1-deficient), transiently co-transfected
T1 sequence (P40692 with tags, fused parts or gaps DEL377-396): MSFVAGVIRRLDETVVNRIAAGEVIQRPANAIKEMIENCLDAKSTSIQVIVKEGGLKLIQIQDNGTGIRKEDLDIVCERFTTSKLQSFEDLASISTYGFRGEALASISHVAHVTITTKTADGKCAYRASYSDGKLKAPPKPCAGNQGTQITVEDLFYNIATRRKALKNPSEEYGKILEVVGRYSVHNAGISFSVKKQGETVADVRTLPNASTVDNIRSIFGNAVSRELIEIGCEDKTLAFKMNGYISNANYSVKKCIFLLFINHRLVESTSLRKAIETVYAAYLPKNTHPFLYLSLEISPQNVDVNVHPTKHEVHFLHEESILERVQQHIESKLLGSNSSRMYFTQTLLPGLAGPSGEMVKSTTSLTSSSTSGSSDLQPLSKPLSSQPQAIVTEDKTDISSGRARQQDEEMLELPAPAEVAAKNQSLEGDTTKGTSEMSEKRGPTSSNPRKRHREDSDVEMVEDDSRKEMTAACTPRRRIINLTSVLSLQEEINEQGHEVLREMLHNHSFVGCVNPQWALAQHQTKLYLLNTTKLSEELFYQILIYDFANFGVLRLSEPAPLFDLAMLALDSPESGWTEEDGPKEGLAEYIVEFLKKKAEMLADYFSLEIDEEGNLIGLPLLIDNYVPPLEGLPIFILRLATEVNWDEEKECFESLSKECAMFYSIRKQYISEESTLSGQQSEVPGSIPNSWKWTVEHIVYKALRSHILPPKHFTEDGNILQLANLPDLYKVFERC
T1 sequence (P54278 1-862 partner): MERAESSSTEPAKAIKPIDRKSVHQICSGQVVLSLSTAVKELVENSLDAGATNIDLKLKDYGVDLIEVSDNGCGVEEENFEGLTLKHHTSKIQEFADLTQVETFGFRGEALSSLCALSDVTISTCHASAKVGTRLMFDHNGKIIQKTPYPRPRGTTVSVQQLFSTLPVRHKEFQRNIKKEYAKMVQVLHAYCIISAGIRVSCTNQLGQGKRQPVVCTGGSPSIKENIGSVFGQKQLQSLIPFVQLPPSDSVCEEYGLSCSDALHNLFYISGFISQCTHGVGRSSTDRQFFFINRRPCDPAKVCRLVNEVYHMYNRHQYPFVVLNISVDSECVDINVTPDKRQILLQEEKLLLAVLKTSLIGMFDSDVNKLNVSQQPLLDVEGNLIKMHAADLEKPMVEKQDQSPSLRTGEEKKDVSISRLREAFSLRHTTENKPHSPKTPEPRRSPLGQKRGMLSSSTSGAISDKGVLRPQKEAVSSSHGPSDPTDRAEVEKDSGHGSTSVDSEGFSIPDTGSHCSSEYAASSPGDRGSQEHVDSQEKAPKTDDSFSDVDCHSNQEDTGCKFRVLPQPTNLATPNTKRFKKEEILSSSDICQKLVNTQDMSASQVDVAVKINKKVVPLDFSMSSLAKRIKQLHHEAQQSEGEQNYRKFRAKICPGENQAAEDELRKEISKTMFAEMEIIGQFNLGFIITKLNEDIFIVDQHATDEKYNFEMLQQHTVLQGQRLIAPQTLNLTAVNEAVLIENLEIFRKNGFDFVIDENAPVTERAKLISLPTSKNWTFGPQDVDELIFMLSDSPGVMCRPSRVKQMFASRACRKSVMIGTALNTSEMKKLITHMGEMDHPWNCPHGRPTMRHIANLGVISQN
Assay: DNA mismatch repair (MMR) complementation assay with peptide, MLH1-ΔConMot variant
Format: biochemical
Description: Mismatch repair activity was assessed as described in detail before ([79],[81]) (Supplementary Figure S3). […] Mismatched DNA plasmid substrate (Supplementary Figure S3) prepared according to previously published procedures ([81–83]) was added, and reactions in a final volume of 25 μl were incubated at 37°C for 15 min. Repair efficiency was scored by purifying the mismatched DNA plasmid from the reaction and assessing the fraction of homoduplex sequence by restriction digestion of the mismatched site using EcoRV. The substrate was additionally linearized with AseI.
For complementation assays with peptide, the indicated peptide(s) were used at stock concentrations of 50 or 500 μM in HEPES–KOH 20 mM pH 7.6 and supplemented to the MMR reactions.
Figure 4. Reaction of DNA mismatch repair to addition of ConMot peptide. (A) Nuclear extract of MLH1-proficient HEK293 cells was used for performing the DNA mismatch repair reaction. Four reactions were undertaken, with two reactions supplemented with either 7.5 μM or 75 μM ConMot-32 peptide. A negative control reaction was performed by omitting the 37°C repair incubation. (B) MMR reactions were performed with nuclear extract of MLH1-deficient HEK293T cells supplemented with extract of cells transfected either with wildtype MLH1-PMS2 (positive control) or with MLH1-ΔConMot-PMS2. To these MMR reactions, different peptides were added at a concentration of 75 μM: A ConMot-32 peptide (A), a Scramble-32 peptide (B) in which the conserved ConMot sequence is scrambled, and a short ConMot-20 peptide (C) that only contains the twenty highly conserved ConMot residues. The peptide sequences are given below the gel image. (C) The concentration-dependence of the MMR-activating effect of the ConMot-32 peptide observed in (B) was measured over a concentration range from 1–75 μM. (D) Theoretical binding curves of a ligand (peptide) to a protein were calculated for dissociation constants (KD) of 1, 5 and 10 μM for a protein concentration as present for MLH1-PMS2 in the MMR assay reactions (see also Supplementary Figure S3). Into this diagram, the average MMR activities (and standard deviations) measured in >3 of the experiment exemplarily shown in C were introduced as bars at ConMot-32 peptide concentrations of 1, 2.5, 7.5, 18 and 75 μM.
Second, we used extract of the repair-deficient cell line HEK293T supplemented with either wildtype MutLα (MLH1-PMS2) or the ΔConMot deletion variant, corresponding to experiment shown in Figure 2B. In this experiment, we again added ConMot peptide.
We investigated the effect of the ConMot peptide more closely by titrating the required peptide concentrations for activation. We determined that the mismatch repair reactions performed in this study contained approximately 280 fmol MLH1 (Supplementary Figure S4A and B), which is in good agreement with previous quantifications of MLH1-PMS2 in cells and extracts ([96]). […] Dissociation constants (KD) for peptides to proteins are typically in the range of 1–10 μM ([97]). We compared the measured concentration-dependent MMR activities with theoretical binding curves of (peptide) ligands to (protein) substrates for KD values of 1, 5 and 10 μM (Supplementary Figure S4C) at the determined MLH1 concentration. […] It is therefore plausible that a binding reaction of the ConMot peptide (to a protein) underlies the restauration of MMR activity. […]
Deletion C on M ot (∆Co nMot) c.1129_1188del CTGCAGCCTCTGAGCAAA […]
Del et i on comp are (∆Compare) c.1221_1280del […] ACTGGACAGGGGTTTGCT
Scramble c.1147_1160delinsGAC ggtacgtTCCCGGGAACAGAAGCT atagtgtcCTGGTGGGCATAGACCT
p.(M383_D387delinsDTMVR) ACTATGGTAC G T TATC
ConMot hy bri d gcataTCTGCAGCCTCTGAGCAA acagg[…]
Supplementary Table 1: Analyzed variant inf ormation.
Variant descriptions confer to HGVS format and refer to the MLH1 reference cDNA (NM_000249.4) […]

[1] = ConMot-32, concentration range 1–75 μM, approximately 280 fmol MLH1 (11.1 nM), 37°C, 15 min, >3 experiments

## SGSSDKVYAHQMVRTDSREQKLDAFLQPLSKP [ConMot-32]
[1]
  peptide concentration at which almost complete activation was achieved (MMR): 75 µM
  peptide concentration at which increase in MMR activity became detectable: 1 µM
ConMot-32, concentration range 1–75 μM, approximately 280 fmol MLH1 (11.1 nM), 37°C, 15 min, >3 experiments, read-out: peptide concentration at which 50% activation was achieved (MMR)
  EC50: 7.5 µM
Molar ratio 0-860-2300-8600 to hMLH1-PMS2, Tris-HCl pH 7.5, 5 mM Mg2+, 1.5 mM ATP
  effect of peptide on MMR (summary in Supplementary Table 2): activating
Peptide 75 μM (Figure 4B), HEK293T nuclear extract 50 μg + 5 μg transfected extract, 25 μl, 37°C, 15 min, EcoRV/AseI digestion, agarose gel, listed as ConMot-peptide
  restoration of DNA mismatch repair activity of the ΔConMot variant: could be overcome; also recorded: possible to overcome the MMR-deficiency

Source: paper PMC10325900, “A conserved motif in the disordered linker of human MLH1 is vital for DNA mismatch repair and its function is diminished by a cancer family mutation” (Nucleic Acids Research, 2023)
